Counter-ions that a name gives are not always drawn.
Legend:
[1] = test system: ptosis with reserpine; test: inhibition of reserpine ptosis in Swiss mice (B. Rubin et al.); type: in vivo; settings: simultaneously with reserpine 5 mg/kg intraperitoneally, ptosis measured at 1, 1.5 and 2 hours; for ED50 (dose inhibiting reserpine ptosis by an average of 50%): oral; for ED50: Mus musculus, po, read-out: ED50 (dose inhibiting reserpine ptosis by an average of 50%)
Protocol: This mood-altering activity can be determined by standard, routine tests well known specialists. […] In Swiss mice, a compound was administered orally simultaneously with reserpine given interperitoneally at a dose of 5 mg/kg. Ptosis measured according to B. Rubin et al. (J. Pharmacol. Exp. […] (3-dimethylamino propylidene-5-dibenzo [a,d] 1,4-cycloheptadiene hydrochloride).

[2] = test system: Swiss mice; settings: oral
[3] = clinical test of the medication containing the active compound of Example 5 A; type: in vivo, human
Description: The following are observations recorded during a clinical test of the medication containing the active compound of Example 5 A.

[4] = in vivo; settings: mouse, po
[5] = Case No. 1, 5 mg daily for 30 days
[6] = Case No. 2, 20 mg daily for 30 days
[7] = Case No. 3, 10 mg daily for 20 days
[8] = Case No. 4, 25 mg daily for 45 days
[9] = Case No. 5, 5 mg daily for 30 days
[10] = Case No. 6, 25 mg daily for 30 days
[11] = LD50, administered orally, Swiss mice

Which results are given for `CN1CCC23NC(=O)CC(c4ccccc4O2)C3C1` (single isomer, unassigned) [Example 1 A, 4a-amino-2-methyl-1,2,3,4,4a,10a-hexahydro [10 H] benzopyrano-[3,2-c]pyrid-10-yl acetic acid lactam]?
ED50 (dose inhibiting reserpine ptosis by an average of 50%) [1]: 6 mg/kg; LD50, administered orally [2]: 2,700 mg/kg

Which “ED50 (dose inhibiting reserpine ptosis by an average of 50%)” value [1] does the source give for `CN1CCC23NC(=O)CC(c4ccccc4O2)C3C1` (single isomer, unassigned) [Example 1 B, 4a-amino-2-methyl-1,2,3,4,4a,10a-hexahydro [10 H] benzopyrano-[3,2-c]pyrid-10-yl acetic acid lactam] here?
Its value is 24 mg/kg.

What about the “LD50, administered orally” value [2] of the same compound?
Its value is 600 mg/kg.

For `CN1CCC23NC(=O)CC(c4cc(Cl)ccc4O2)C3C1` (single isomer, unassigned) [Example 5 A, 4a-amino-8-chloro-2-methyl-1,2,3,4,4a,10a-hexahydro[10 H]benzopyrano[3,2c]pyrid-10-ylacetic acid lactam], which “ED50 (dose inhibiting reserpine ptosis by an average of 50%)” value [1] is on record?
Its value is 0.04 mg/kg.

And the Activity ([3]; Case No. 1, pre-senile depression, 5 mg daily for 30 days, with NOZINAN-SUREPTIL)?
Its Activity is “Weight gain. Improvement of mood and sociability”.

And the “Tolerance, biological” value [3, 5]?
The value was “N.A.D”.

And the “Tolerance, clinical” value [3, 5]?
The value was “N.A.D”.

What about the Activity ([3]; Case No. 2, post-neuroleptic depression with schizophrenia, 20 mg daily for 30 days, with NOZINAN-ARTANE-GARDENAL) of the same compound?
Its Activity is “Weight gain. Improvement of mood and sleep. Reduced anxiety. Relief of hypochondriac complaints”.

And the “Tolerance, biological” value [3, 6]?
Its value is “N.A.D”.

What about the “Tolerance, clinical” value [3, 6] of the same compound?
The value was “N.A.D”.

What about the Activity ([3]; Case No. 3, serious hypochondriac depressive syndrome, 10 mg daily for 20 days, with MEPRONIZINE) of the same compound?
Its Activity is “The patient was less preoccupied with their body. Decrease of compulsive washing. Improvement of social behavior”.

And the “Tolerance, biological” value [3, 7]?
The value was “N.A.D”.

And the “Tolerance, clinical” value [3, 7]?
Its value is “N.A.D”.

And the Activity ([3]; Case No. 4, melancholic depressive relapse, 25 mg daily for 45 days, with NOZINAN 25 mg)?
The Activity was “Improvement of mood. Less pessimistic attitude. Less frequent crying. Less pronounced feeling of guilt”.

And the “Tolerance, biological” value [3, 8]?
Its value is “N.A.D”.

And the “Tolerance, clinical” value [3, 8]?
Its value is “N.A.D”.

What about the Activity ([3]; Case No. 5, depressive syndrome in an alcoholic of the melancholic type, 5 mg daily for 30 days, with vitamins, NOZINAN (50 mg), ARTANE 5) of the same compound?
The Activity was “Improvement of mood. Less frequent crying. Improved appetite”.

What about the “Tolerance, biological” value [3, 9] of the same compound?
The value was “N.A.D”.

What about the “Tolerance, clinical” value [3, 9] of the same compound?
The value was “slight dizziness and nausea”.

What about the Activity ([3]; Case No. 6, hypochondriac delirium with anxiety, 25 mg daily for 30 days, with ARTANE 10 mg […]) of the same compound?
The Activity was “Decrease of hypochondriac complaints. Patient less irritable and apprehensive”.

What about the “Tolerance, biological” value [3, 10] of the same compound?
Its value is “N.A.D”.

And the “Tolerance, clinical” value [3, 10]?
Its value is “slight vertigo”.

With `CN1CCC23NC(=O)CC(c4cc(Cl)ccc4O2)C3C1` (single isomer, unassigned) [Example 5 B, 4a-amino-8-chloro-2-methyl-1,2,3,4,4a,10a-hexahydro[10 H]benzopyrano[3,2c]pyrid-10-ylacetic acid lactam] as the compound, how does the “ED50 (dose inhibiting reserpine ptosis by an average of 50%)” value [1] read?
The value was 11 mg/kg.

For `COc1ccc2c(c1)C1CC(=O)NC3(CCN(C)CC13)O2` (single isomer, unassigned) [Example 18, 4a-amino-8-methoxy-2-methyl-1,2,3,4,4a,10a-hexahydro[10 H]benzopyrano[3,2-c]pyrid-10-ylacetic acid lactam], which ED50 [1] is on record?
The ED50 was 0.67 mg/kg.

And the LD50 [4, 11]?
The LD50 was 1200 mg/kg.

Which ED50 [1] does the source give for `CN(C)CCC=C1c2ccccc2CCc2ccccc21` [Amitriphthyline, 3-dimethylamino propylidene-5-dibenzo [a,d] 1,4-cycloheptadiene hydrochloride, reference compound] here?
Its ED50 is 10 mg/kg.

And the LD50 [4]?
Its LD50 is 150 mg/kg.

Which results are given for `CN1CCC23NC(=O)CC(c4cc(Br)ccc4O2)C3C1` (centres unmarked) [Example 6, 4a-amino-8-bromo-2-methyl-1,2,3,4,4a,10a-hexahydro[10 H]benzopyrano[3,2-c]pyrid-10-ylacetic acid lactam]?
ED50 [1]: 0.1 mg/kg; LD50 [4, 11]: 720 mg/kg

With `Cc1ccc2c(c1)C1CC(=O)NC3(CCN(C)CC13)O2` (centres unmarked) [Example 7, 4a-amino-28-dimethyl-1,2,3,4,4a,10a-hexahydro[10 H]benzopyrano[3,2-c]pyrid-10-ylacetic acid lactam] as the compound, how does the ED50 [1] read?
The ED50 was 3.5 mg/kg.

What about the LD50 [4, 11] of the same compound?
Its LD50 is 1200 mg/kg.

For `CN1CCC23NC(=O)CC(c4cc(F)ccc4O2)C3C1` (centres unmarked) [Example 8, 4a-amino-8-fluoro-2-methyl-1,2,3,4,4a,10a-hexahydro[10 H]benzopyrano[3,2-c]pyrid-10-ylacetic acid lactam], which ED50 [1] is on record?
The ED50 was 1 mg/kg.

What about the LD50 [4, 11] of the same compound?
Its LD50 is 1080 mg/kg.

For `CC(=O)N1CCC23NC(=O)CC(c4ccccc4O2)C3C1` (centres unmarked) [Example 9, 4a-amino-2-acetyl-1,2,3,4,4a,10a-hexahydro[10 H]benzopyrano[3,2-c]pyrid-10-ylacetic acid lactam], which ED50 [1] is on record?
The ED50 was 5 mg/kg.

And the LD50 [4, 11]?
The LD50 was > 3200 mg/kg.

For `CN1CCC23NC(=O)CC(c4c(ccc5ccccc45)O2)C3C1` (centres unmarked) [Example 10, 7a-amino-10-methyl-7a,8,9,10,11,11a-hexahydro[12 H]benzo[f]benzopyrano[3,2-c]pyrid-12-ylacetic acid lactam], which ED50 [1] is on record?
The ED50 was 1.8 mg/kg.

And the LD50 [4, 11]?
Its LD50 is 600 mg/kg.

Which ED50 [1] does the source give for `CN1CCC23NC(=O)CC(c4cc([N+](=O)[O-])ccc4O2)C3C1` (centres unmarked) [Example 15, 4a-amino-8-nitro-2-methyl-1,2,3,4,4a,10a-hexahydro[10 H]benzopyrano[3,2-c]pyrid-10-ylacetic acid lactam] here?
Its ED50 is 0.6 mg/kg.

What about the LD50 [4, 11] of the same compound?
Its LD50 is 2470 mg/kg.

For `CCOC(=O)N1CCC23NC(=O)CC(c4cc(Cl)ccc4O2)C3C1` (centres unmarked) [Example 27, 4a-amino-8-chloro-2-ethoxycarbonyl-1,2,3,4,4a,10a-hexahydro[10 H]benzopyrano[3,2-c]pyrid-10-ylacetic acid lactam], which ED50 [1] is on record?
The ED50 was 0.37 mg/kg.

What about the LD50 [4] of the same compound?
The LD50 was > 1600 mg/kg.

Which results are given for `COC(=O)N1CCC23NC(=O)CC(c4cc(Cl)ccc4O2)C3C1` (centres unmarked) [Example 28, 4a-amino-8-chloro-2-methoxycarbonyl-1,2,3,4,4a,10a-hexahydro[10 H]benzopyrano[3,2-c]pyrid-10-ylacetic acid lactam]?
ED50 [1]: 0.25 mg/kg; LD50 [4]: 1100 mg/kg

With `CN1CCC23Oc4ccc(Cl)cc4C(CC(=O)N2C)C3C1` (centres unmarked) [Example 36, 8-chloro-2-methyl-4a-methylamino-1,2,3,4,4a,10a-hexahydro[10 H]benzopyrano[3,2-c]pyrid-10-ylacetic acid lactam] as the compound, how does the ED50 [1] read?
Its ED50 is 0.7 mg/kg.

What about the LD50 [4, 11] of the same compound?
Its LD50 is 600 mg/kg.

With `CN(C)CCCN1c2ccccc2CCc2ccccc21` [Imipramine, N-(3-dimethylaminopropyl) iminodibenzyl hydrochloride, reference compound] as the compound, how does the ED50 [1] read?
Its ED50 is 2.9 mg/kg.

Source: patent publication US4201783A, “Antidepressant substituted hexahydro benzopyrano [3,2-c] pyridines” (Lipha Lyonnaise Industrielle Pharmaceutique, priority 1977, dated 1980)
